Laboratory results reported in patent US6630504B2, “Phenoxyphenylheterocyclyl derivatives as SSRIs” (Pfizer Inc., priority 2000, dated 2003).
“And” between values parts separate entries of the source, which are not always exact repeats. Equal values may be shown once. Where a name gives a salt, the structure may show the parent alone.

Biological target: T1, human serotonin transporter (hSERT) (Homo sapiens, UniProt P31645)
T1 construct: expressed in transfected cells; host or cells: HEK-293 (stably transfected)
T1 sequence (P31645 whole entry): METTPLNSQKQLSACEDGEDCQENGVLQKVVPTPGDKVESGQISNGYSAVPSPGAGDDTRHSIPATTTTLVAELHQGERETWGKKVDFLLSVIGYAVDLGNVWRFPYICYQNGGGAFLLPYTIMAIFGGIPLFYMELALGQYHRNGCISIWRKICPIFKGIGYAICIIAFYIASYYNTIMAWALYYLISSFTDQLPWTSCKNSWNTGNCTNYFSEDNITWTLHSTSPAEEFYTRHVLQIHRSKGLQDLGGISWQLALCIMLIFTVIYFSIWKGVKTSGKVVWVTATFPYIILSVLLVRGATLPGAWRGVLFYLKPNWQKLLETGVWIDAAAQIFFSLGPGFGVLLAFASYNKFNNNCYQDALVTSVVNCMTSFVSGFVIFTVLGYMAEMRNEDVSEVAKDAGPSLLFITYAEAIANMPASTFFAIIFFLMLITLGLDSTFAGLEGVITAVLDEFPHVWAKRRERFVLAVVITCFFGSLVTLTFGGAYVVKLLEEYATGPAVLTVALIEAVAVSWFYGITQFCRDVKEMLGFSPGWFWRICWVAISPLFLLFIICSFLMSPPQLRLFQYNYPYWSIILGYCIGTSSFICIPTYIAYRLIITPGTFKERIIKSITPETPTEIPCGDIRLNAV
Test: inhibition of 3H-serotonin uptake in HEK-293 cells expressing hSERT
Assay type: cell-based
Settings: HEK-293 cells with hSERT, 3H-5HT 50 nM, 5 min incubation; read-out: serotonin re-uptake inhibition (SRI) IC50
Description: A number of compounds were tested for biological activity by their ability to inhibit the uptake of serotonin by human serotonin transporters as follows.
Human embryonic kidney cells (HEK-293) stably transfected with either the human serotonin transporter (hSERT), noradrenaline transporter (hNET) or dopamine transporter (hDAT) were cultured under standard cell culture techniques (cells were grown at 37° C. and 5% CO2 in DMEM-culture media (supplemented with 10% dialysed foetal calf serum (FCS), 2 mM I-glutamine and 250 μg/ml geneticin)). Cells were harvested for the assay to yield a cell suspension of 750,000 cells/ml.
All test compounds were dissolved in 100% DMSO and diluted down in assay buffer to give appropriate test concentrations. Assays were carried out in 96-well filter bottom plates. Cells (7500 cells/assay well) were pre-incubated in standard assay buffer containing either test compound, standard inhibitor or compound vehicle (1% DMSO) for 5 minutes. Reactions were started by addition of either ^3H-Serotonin, ^3H-Noradrenaline or ^3H-Dopamine substrates. All reactions were carried out at room temperature in a shaking incubator. Incubation times were 5 minutes for the hSERT and hDAT assays and 15 minutes for the hNET assay. Reactions were terminated by removal of the reaction mixture using a vacuum manifold followed by rapid washing with ice cold assay buffer. The quantity of ^3H-substrate incorporated into the cells was then quantified.
Assay plates were dried in a microwave oven, scintillation fluid added, and radioactivity measured. Potency of test compounds was quantified as IC50 values (concentration of test compound required to inhibit the specific uptake of radiolabelled substrate into the cells by 50%).

Structure (SMILES) | IC50
CS(=O)(=O)Nc1ccc(Oc2ccc(OC(F)(F)F)cc2)c(C2CCCN2)c1 (single isomer, unassigned; (+)) [Example 22, (+) N-{3-(2-pyrrolidinyl)-4-[4-(trifluoromethoxy)phenoxy]phenyl}-methanesulfonamide] | ≤ 50 nM
CS(=O)(=O)Nc1ccc(Oc2ccc(OC(F)(F)F)cc2)c(C2CCCN2)c1 (single isomer, unassigned) [Example 21] | 13 nM
CNS(=O)(=O)c1ccc(Oc2ccc(SC)cc2)c(C2CCCN2)c1 (single isomer, unassigned) [Example 11, N-methyl-4-[4-(methylsulfanyl)phenoxy]-3-(2-pyrrolidinyl)benzenesulfonamide] | ≤ 100 nM and ≤ 50 nM and 5.9 nM
CSc1ccc(Oc2ccc(S(N)(=O)=O)cc2C2CCCN2)cc1 (single isomer, unassigned; (+)) [Example 7, (+)4-[4-(Methylsulfanyl)phenoxy]-3-(2-pyrrolidinyl)benzenesulfonamide hydrochloride] | ≤ 100 nM and ≤ 50 nM and 5.4 nM
